# Measured values taken from publication PMC5218480 (PLoS ONE, 2017).
# Tested on: MV-4-11 cells
# Experiment: Gene expression microarray analysis (Affymetrix PrimeView) and GSEA
# Assay type: cell-based, human
# Design: RFU PODN (11730768_x_at) / Fold change /veh PODN (11730768_x_at) / RFU LINC00158 (11744669_a_at) / Fold change /veh LINC00158 (11744669_a_at) / RFU DUSP10 (11751237_a_at) / Fold change /veh DUSP10 (11751237_a_at) / RFU ID3 (11757404_x_at) / Fold change /veh ID3 (11757404_x_at) / RFU PLEKHG5 (11737974_s_at) / Fold change /veh PLEKHG5 (11737974_s_at) / RFU LRRC4B (11730491_at) / Fold change /veh LRRC4B (11730491_at) / RFU GIMAP4 (11747438_a_at) / Fold change /veh GIMAP4 (11747438_a_at) / RFU KRT8 (11758183_x_at) / Fold change /veh KRT8 (11758183_x_at) / RFU CNN1 (11734310_a_at) / Fold change /veh CNN1 (11734310_a_at) / RFU VPS37D (11726825_at) / Fold change /veh VPS37D (11726825_at) / RFU C10orf10 (11716522_x_at) / Fold change /veh C10orf10 (11716522_x_at) / RFU KIR2DL2 /// KIR2DL4 /// KIR2DL5A /// KIR2DL5B /// KIR2DS1 /// KIR2DS2 /// KIR2DS3 /// KIR2DS4 /// KIR3DL3 /// KIR3DL3 /// KIR3DS1 (11738374_at) / Fold change /veh KIR2DL2 /// KIR2DL4 /// KIR2DL5A /// KIR2DL5B /// KIR2DS1 /// KIR2DS2 /// KIR2DS3 /// KIR2DS4 /// KIR3DL3 /// KIR3DL3 /// KIR3DS1 (11738374_at) / RFU C1QL1 (11718748_at) / Fold change /veh C1QL1 (11718748_at) / RFU TMPRSS4 (11747572_a_at) / Fold change /veh TMPRSS4 (11747572_a_at) / RFU HAMP (11756126_x_at) / Fold change /veh HAMP (11756126_x_at) / RFU RNFT2 (11725882_a_at) / Fold change /veh RNFT2 (11725882_a_at) / RFU NR4A2 (11747474_a_at) / Fold change /veh NR4A2 (11747474_a_at) / RFU ABCC12 (11746883_a_at) / Fold change /veh ABCC12 (11746883_a_at) / RFU TMEM136 (11760407_x_at) / Fold change /veh TMEM136 (11760407_x_at) / RFU CLDN22 /// WWC2 (11732394_at) / Fold change /veh CLDN22 /// WWC2 (11732394_at) / RFU HLA-DPB1 (11760878_x_at) / Fold change /veh HLA-DPB1 (11760878_x_at) / RFU SPINT1 (11716480_a_at) / Fold change /veh SPINT1 (11716480_a_at) / RFU GAP43 (11754022_s_at) / Fold change /veh GAP43 (11754022_s_at) / RFU A4GNT (11735810_at) / Fold change /veh A4GNT (11735810_at) / RFU PRB3 (11715151_x_at) / Fold change /veh PRB3 (11715151_x_at) / RFU TUBB4B (11761932_at) / Fold change /veh TUBB4B (11761932_at) / RFU CAPN14 (11732068_a_at) / Fold change /veh CAPN14 (11732068_a_at) / RFU TMCC2 (11721928_a_at) / Fold change /veh TMCC2 (11721928_a_at) / RFU IRGQ (11745062_a_at) / Fold change /veh IRGQ (11745062_a_at) / RFU FAM174B (11720279_a_at) / Fold change /veh FAM174B (11720279_a_at) / RFU TMPRSS4 (11748680_a_at) / Fold change /veh TMPRSS4 (11748680_a_at) / RFU FAM212B (11763350_a_at) / Fold change /veh FAM212B (11763350_a_at) / RFU PLEKHG5 (11743358_a_at) / Fold change /veh PLEKHG5 (11743358_a_at) / RFU ZSCAN30 (11745921_a_at) / Fold change /veh ZSCAN30 (11745921_a_at) / RFU CMKLR1 (11741424_a_at) / Fold change /veh CMKLR1 (11741424_a_at) / RFU LOC101060620 /// MAPK8IP1 (11723275_at) / Fold change /veh LOC101060620 /// MAPK8IP1 (11723275_at) / RFU SPTSSB (11747773_x_at) / Fold change /veh SPTSSB (11747773_x_at) / RFU PRSS12 (11739890_at) / Fold change /veh PRSS12 (11739890_at) / RFU BIN1 (11741810_x_at) / Fold change /veh BIN1 (11741810_x_at) / RFU WNT11 (11732464_a_at) / Fold change /veh WNT11 (11732464_a_at) / RFU C10orf10 (11716521_a_at) / Fold change /veh C10orf10 (11716521_a_at) / RFU C5orf56 (11738089_at) / Fold change /veh C5orf56 (11738089_at) / RFU CYB561 (11721691_x_at) / Fold change /veh CYB561 (11721691_x_at) / RFU ANKRD19P (11752326_a_at) / Fold change /veh ANKRD19P (11752326_a_at) / RFU OR2T12 /// OR2T33 /// OR2T8 (11738714_s_at) / Fold change /veh OR2T12 /// OR2T33 /// OR2T8 (11738714_s_at) / RFU VCAN (11748164_a_at) / Fold change /veh VCAN (11748164_a_at) / RFU JSRP1 (11732532_at) / Fold change /veh JSRP1 (11732532_at) / RFU KRTAP10-11 (11738290_x_at) / Fold change /veh KRTAP10-11 (11738290_x_at) / RFU MYO3A (11730013_a_at) / Fold change /veh MYO3A (11730013_a_at) / RFU EBF3 (11725865_a_at) / Fold change /veh EBF3 (11725865_a_at) / RFU CAMK2N1 (11719241_x_at) / Fold change /veh CAMK2N1 (11719241_x_at) / RFU C5orf56 (11738088_a_at) / Fold change /veh C5orf56 (11738088_a_at) / RFU OLFML3 (11715873_a_at) / Fold change /veh OLFML3 (11715873_a_at) / RFU LOC100653217 /// NTM (11731650_a_at) / Fold change /veh LOC100653217 /// NTM (11731650_a_at) / RFU MAPK11 (11762145_a_at) / Fold change /veh MAPK11 (11762145_a_at) / RFU FIZ1 (11724087_x_at) / Fold change /veh FIZ1 (11724087_x_at) / RFU OASL (11726364_x_at) / Fold change /veh OASL (11726364_x_at) / RFU SOX15 (11748057_x_at) / Fold change /veh SOX15 (11748057_x_at) / RFU CD79A (11719716_a_at) / Fold change /veh CD79A (11719716_a_at) / RFU HIST1H1D (11736915_at) / Fold change /veh HIST1H1D (11736915_at) / RFU CASKIN2 (11723855_a_at) / Fold change /veh CASKIN2 (11723855_a_at) / RFU LOC730098 (11760151_x_at) / Fold change /veh LOC730098 (11760151_x_at) / RFU OR4N2 (11742367_at) / Fold change /veh OR4N2 (11742367_at) / RFU PRRT2 (11749266_a_at) / Fold change /veh PRRT2 (11749266_a_at) / RFU SNX32 (11753110_a_at) / Fold change /veh SNX32 (11753110_a_at) / RFU CDHR5 (11726645_a_at) / Fold change /veh CDHR5 (11726645_a_at) / RFU RCAN1 (11760418_a_at) / Fold change /veh RCAN1 (11760418_a_at) / RFU FAM167A (11723789_a_at) / Fold change /veh FAM167A (11723789_a_at) / RFU FAM26E (11764081_at) / Fold change /veh FAM26E (11764081_at) / RFU ISYNA1 (11749810_s_at) / Fold change /veh ISYNA1 (11749810_s_at) / RFU ACY1 (11761880_at) / Fold change /veh ACY1 (11761880_at) / RFU 11764098_at / Fold change /veh 11764098_at / RFU SAMD14 (11745864_x_at) / Fold change /veh SAMD14 (11745864_x_at) / RFU NPB (11741838_a_at) / Fold change /veh NPB (11741838_a_at) / RFU TMPRSS6 (11731388_a_at) / Fold change /veh TMPRSS6 (11731388_a_at) / RFU KRTAP10-2 (11738614_at) / Fold change /veh KRTAP10-2 (11738614_at) / RFU ARHGAP8 /// PRR5-ARHGAP8 (11727945_x_at) / Fold change /veh ARHGAP8 /// PRR5-ARHGAP8 (11727945_x_at) / RFU KRTAP5-7 /// NADSYN1 (11734609_at) / Fold change /veh KRTAP5-7 /// NADSYN1 (11734609_at) / RFU RASL12 (11751679_a_at) / Fold change /veh RASL12 (11751679_a_at) / RFU CDKN2B (11736163_a_at) / Fold change /veh CDKN2B (11736163_a_at) / RFU PRF1 (11729649_at) / Fold change /veh PRF1 (11729649_at) / RFU, ZNF638 /// ZNF638-IT1 / Fold change vs veh, ZNF638 /// ZNF638-IT1 / RFU, PANK3 / Fold change vs veh, PANK3 / RFU, SH3YL1 / Fold change vs veh, SH3YL1 / RFU, ZEB2 / Fold change vs veh, ZEB2 / RFU, NRIP1 / Fold change vs veh, NRIP1 / RFU, PTTG1IP / Fold change vs veh, PTTG1IP / RFU, CAPN2 / Fold change vs veh, CAPN2 / RFU, MED14 / Fold change vs veh, MED14 / RFU, SNORA58 / Fold change vs veh, SNORA58 / RFU, C1orf63 / Fold change vs veh, C1orf63 / RFU, LRRFIP1 / Fold change vs veh, LRRFIP1 / RFU, NDUFAF7 / Fold change vs veh, NDUFAF7 / RFU, SLC12A2 / Fold change vs veh, SLC12A2 / RFU, IBTK / Fold change vs veh, IBTK / RFU, ESF1 / Fold change vs veh, ESF1 / Fold change vs veh, TMEM50B / RFU, TAOK1 / Fold change vs veh, TAOK1 / RFU, ACBD3 / Fold change vs veh, ACBD3 / RFU, TMA16 / Fold change vs veh, TMA16 / RFU, RWDD3 / Fold change vs veh, RWDD3 / RFU, BCAT1 / Fold change vs veh, BCAT1 / RFU, EDEM3 / Fold change vs veh, EDEM3 / RFU, TMEM33 / Fold change vs veh, TMEM33 / RFU, WDR75 / Fold change vs veh, WDR75 / RFU, AHCTF1 / Fold change vs veh, AHCTF1 / RFU, TFRC / Fold change vs veh, TFRC / RFU, ZDHHC17 / Fold change vs veh, ZDHHC17 / RFU, NOM1 / Fold change vs veh, NOM1 / RFU, ARL8B / Fold change vs veh, ARL8B / RFU, ZBTB11 / Fold change vs veh, ZBTB11 / RFU, TAMM41 / Fold change vs veh, TAMM41 / RFU, KIAA1704 /// LOC100996395 / Fold change vs veh, KIAA1704 /// LOC100996395 / RFU, ING1 / Fold change vs veh, ING1 / RFU, TRMT61B / Fold change vs veh, TRMT61B / RFU, FUBP3 / Fold change vs veh, FUBP3 / RFU, TP53 / Fold change vs veh, TP53 / RFU, TNKS2 / Fold change vs veh, TNKS2 / RFU, ZFP14 / Fold change vs veh, ZFP14 / RFU, ACTR2 / Fold change vs veh, ACTR2 / RFU, PPP3R1 / Fold change vs veh, PPP3R1 / RFU, PIK3R1 / Fold change vs veh, PIK3R1 / RFU, HNRNPA1 / Fold change vs veh, HNRNPA1 / RFU, RNF170 / Fold change vs veh, RNF170 / RFU, ZNF28 / Fold change vs veh, ZNF28 / RFU, RNGTT / Fold change vs veh, RNGTT / RFU, OGT / Fold change vs veh, OGT / RFU, BRD1 / Fold change vs veh, BRD1 / RFU, MARS / Fold change vs veh, MARS / RFU, ZNF655 / Fold change vs veh, ZNF655 / RFU, FAHD1 / Fold change vs veh, FAHD1 / RFU, BDP1 / Fold change vs veh, BDP1 / RFU, LRRCC1 / Fold change vs veh, LRRCC1 / RFU, ARID1A / Fold change vs veh, ARID1A / RFU, ZNF146 / Fold change vs veh, ZNF146 / RFU, ZNF330 / Fold change vs veh, ZNF330 / RFU, GPN3 / Fold change vs veh, GPN3 / RFU, C9orf123 / Fold change vs veh, C9orf123 / RFU, N4BP2L2 / Fold change vs veh, N4BP2L2 / RFU, ARFIP1 / Fold change vs veh, ARFIP1 / RFU, FAM179B / Fold change vs veh, FAM179B / RFU, BCL10 / Fold change vs veh, BCL10 / RFU, UHRF1BP1L / Fold change vs veh, UHRF1BP1L / RFU, BET1 / Fold change vs veh, BET1 / RFU, CNOT2 / Fold change vs veh, CNOT2 / RFU, ZNF268 / Fold change vs veh, ZNF268 / Fold change vs veh, ZNF507 / RFU, DGCR2 / Fold change vs veh, DGCR2 / RFU, WDSUB1 / Fold change vs veh, WDSUB1 / Fold change vs veh, HSP90B1 /// MIR3652 / RFU, ADSS / Fold change vs veh, ADSS / RFU, GK / Fold change vs veh, GK / RFU, ZNF148 / Fold change vs veh, ZNF148 / RFU, TAF9 / Fold change vs veh, TAF9 / RFU, SLC1A5 / Fold change vs veh, SLC1A5 / RFU, SLMO2 / Fold change vs veh, SLMO2 / RFU, ABCC4 / Fold change vs veh, ABCC4 / RFU, LOC101060439 /// RAP1B / Fold change vs veh, LOC101060439 /// RAP1B / RFU, RFX7 / Fold change vs veh, RFX7 / RFU, GTPBP10 / Fold change vs veh, GTPBP10 / RFU, CNEP1R1 / Fold change vs veh, CNEP1R1 / RFU, BIVM-ERCC5 /// ERCC5 / Fold change vs veh, BIVM-ERCC5 /// ERCC5 / RFU, ILF3 / Fold change vs veh, ILF3 / RFU 11762660_at / Fold change /veh 11762660_at / RFU VCAN (11757783_s_at) / Fold change /veh VCAN (11757783_s_at) / RFU DDX43 (11728927_at) / Fold change /veh DDX43 (11728927_at) / RFU KRT8 (11758188_x_at) / Fold change /veh KRT8 (11758188_x_at) / RFU NKD1 (11759106_at) / Fold change /veh NKD1 (11759106_at) / RFU SRD5A1 (11742802_a_at) / Fold change /veh SRD5A1 (11742802_a_at) / RFU TPSAB1 /// TPSB2 (11721975_s_at) / Fold change /veh TPSAB1 /// TPSB2 (11721975_s_at) / RFU GSTM3 (11746129_a_at) / Fold change /veh GSTM3 (11746129_a_at) / RFU IL23R (11737362_x_at) / Fold change /veh IL23R (11737362_x_at) / RFU TMEM51 (11727254_a_at) / Fold change /veh TMEM51 (11727254_a_at) / RFU PIWIL2 (11732686_x_at) / Fold change /veh PIWIL2 (11732686_x_at) / RFU ORM1 (11744905_x_at) / Fold change /veh ORM1 (11744905_x_at) / RFU CCDC152 (11743942_at) / Fold change /veh CCDC152 (11743942_at) / RFU ECM1 (11717891_a_at) / Fold change /veh ECM1 (11717891_a_at) / RFU IL23R (11748794_a_at) / Fold change /veh IL23R (11748794_a_at) / RFU TNFAIP8L3 (11732012_x_at) / Fold change /veh TNFAIP8L3 (11732012_x_at) / RFU MBOAT4 (11741988_at) / Fold change /veh MBOAT4 (11741988_at) / RFU 11764193_at / Fold change /veh 11764193_at / RFU TMEM53 (11763286_at) / Fold change /veh TMEM53 (11763286_at) / RFU MAGEB2 (11727129_at) / Fold change /veh MAGEB2 (11727129_at) / RFU TMEM200A (11744735_a_at) / Fold change /veh TMEM200A (11744735_a_at) / RFU CCDC152 (11751479_a_at) / Fold change /veh CCDC152 (11751479_a_at) / RFU FAM211A (11726209_a_at) / Fold change /veh FAM211A (11726209_a_at) / RFU RGS16 (11746705_a_at) / Fold change /veh RGS16 (11746705_a_at) / RFU VCAN (11755009_s_at) / Fold change /veh VCAN (11755009_s_at) / RFU RHOB (11743442_s_at) / Fold change /veh RHOB (11743442_s_at) / RFU RGS16 (11720943_a_at) / Fold change /veh RGS16 (11720943_a_at) / RFU RGS16 (11720944_at) / Fold change /veh RGS16 (11720944_at) / RFU, VPS4B / Fold change vs veh, VPS4B / RFU, CREB1 / Fold change vs veh, CREB1 / RFU, DNAJC13 / Fold change vs veh, DNAJC13 / RFU, GNAQ / Fold change vs veh, GNAQ / RFU, CDK5R1 / Fold change vs veh, CDK5R1 / RFU, ZRANB3 / Fold change vs veh, ZRANB3 / RFU, CUL4A / Fold change vs veh, CUL4A / RFU, CCNY / Fold change vs veh, CCNY / RFU, UFL1 / Fold change vs veh, UFL1 / RFU, COG3 / Fold change vs veh, COG3 / RFU, DIAPH2 / Fold change vs veh, DIAPH2 / RFU, SKA2 / Fold change vs veh, SKA2 / RFU, AFF3 / Fold change vs veh, AFF3 / RFU, LMF1 / Fold change vs veh, LMF1 / RFU, IPO11 / Fold change vs veh, IPO11 / RFU, DFFB / Fold change vs veh, DFFB / RFU, FOXP1 / Fold change vs veh, FOXP1 / RFU, CARD8 / Fold change vs veh, CARD8 / RFU, STRN3 / Fold change vs veh, STRN3 / RFU, ADK / Fold change vs veh, ADK / RFU, RASSF2 / Fold change vs veh, RASSF2 / RFU, WIPF1 / Fold change vs veh, WIPF1 / RFU, LARP1B / Fold change vs veh, LARP1B / RFU, RASA1 / Fold change vs veh, RASA1 / RFU, RB1 / Fold change vs veh, RB1 / RFU, PPFIA1 / Fold change vs veh, PPFIA1 / RFU, MAT2A / Fold change vs veh, MAT2A / RFU, CCT5 / Fold change vs veh, CCT5 / RFU, WDR92 / Fold change vs veh, WDR92 / RFU, CUX1 / Fold change vs veh, CUX1 / RFU, TTC7A / Fold change vs veh, TTC7A / RFU, TMEM135 / Fold change vs veh, TMEM135 / RFU, DEPTOR / Fold change vs veh, DEPTOR / RFU, CPM / Fold change vs veh, CPM / RFU, DNAJB6 / Fold change vs veh, DNAJB6 / RFU, CACNA2D3 / Fold change vs veh, CACNA2D3 / RFU, DTX4 / Fold change vs veh, DTX4 / RFU, TFCP2 / Fold change vs veh, TFCP2 / RFU, GMCL1 /// GMCL1P1 / Fold change vs veh, GMCL1 /// GMCL1P1 / RFU, AEBP2 / Fold change vs veh, AEBP2 / RFU, SNHG1 /// SNORD22 /// SNORD25 /// SNORD26 /// SNORD27 /// SNORD28 /// SNORD29 /// SNORD31 / Fold change vs veh, SNHG1 /// SNORD22 /// SNORD25 /// SNORD26 /// SNORD27 /// SNORD28 /// SNORD29 /// SNORD31 / Fold change (Aza/veh), C12orf56 (ProbeSet 11735607_a_at) / Fold change (ACY-1035/veh), C12orf56 (ProbeSet 11735607_a_at) / Fold change (Aza/veh), FGFR1OP (ProbeSet 11751329_s_at) / Fold change (ACY-1035/veh), FGFR1OP (ProbeSet 11751329_s_at) / Fold change (Aza/veh), VPS36 (ProbeSet 11739960_a_at) / Fold change (ACY-1035/veh), VPS36 (ProbeSet 11739960_a_at) / RFU SYPL1 (11715823_x_at) / Fold change /veh SYPL1 (11715823_x_at) / RFU IGFBP7 (11715501_s_at) / Fold change /veh IGFBP7 (11715501_s_at) / RFU REEP3 (11722064_at) / Fold change /veh REEP3 (11722064_at) / RFU IGLL1 (11728026_x_at) / Fold change /veh IGLL1 (11728026_x_at): dose or concentration left out as unconfirmed
# Details: ProbeSet 11743580_s_at; LIST B
smiles,measurement,value
Nc1ncn([C@@H]2O[C@H](CO)[C@@H](O)[C@H]2O)c(=O)n1 [azacitidine],"Fold change vs veh, ACTR2",0.91
